Converted amounts (≈) assume the structure as drawn. Where two headings read alike, the source gives them in different places.
Assays:
Assay in all cases: In vitro antibacterial MIC, agar plate dilution
Type in all cases: cell-based
[1] = system: Citrobacter diversus K 82-24; conditions: Citrobacter koseri, K8224, Mueller-Hinton agar, 10^4 CFU, 18 hours, 35° C.
Method: (§1) The in vitro antimicrobial spectrum of the compounds of this invention were determined by the agar plate dilution method with Mueller-Hinton agar and an inoculum of each test organism of approximately 10^4 colony forming units delivered by the Steers replicating device. The minimal inhibitory concentration (MIC) in mcg/ml is defined as the lowest concentration of test compound that inhibited visible growth after 18 hours incubation at 35° C. Results are given in Table I, with the test compounds identified by the number of their hereinafter described examples

[2] = system: Enterobacter cloacae K 84-10; conditions: K8410, Mueller-Hinton agar, 10^4 CFU, 18 hours, 35° C.
Method: as §1

[3] = system: Enterobacter cloacae MOR 84-30; conditions: MOR8430, Mueller-Hinton agar, 10^4 CFU, 18 hours, 35° C.
Method: as §1

[4] = system: Enterobacter cloacae VGH 84-39; conditions: VGH8439, Mueller-Hinton agar, 10^4 CFU, 18 hours, 35° C.
Method: as §1

[5] = system: Escherichia coli ATCC 25922; conditions: Escherichia coli, ATCC25922, 18 h, read-out: MIC
Method: as §1

[6] = system: Escherichia coli MOR 84-20; conditions: MOR8420, Mueller-Hinton agar, 10^4 CFU, 18 hours, 35° C.
Method: as §1

[7] = system: Escherichia coli VGH 84-19; conditions: VGH8419, Mueller-Hinton agar, 10^4 CFU, 18 hours, 35° C.
Method: as §1

[8] = system: Excherichia coli CMC 84-11; conditions: 18 h, Table II, read-out: MIC
Method: as §1

[9] = system: Excherichia coli LL 311; conditions: 18 h, Table II, read-out: MIC
Method: as §1

[10] = system: Klebsiella neumoniae CMC 84-31; conditions: CMC8431, Mueller-Hinton agar, 10^4 CFU, 18 hours, 35° C.
Method: as §1

[11] = system: Moranella morganii CMC 84-38; conditions: Mueller-Hinton agar, 10^4 CFU, 18 hours, 35° C.
Method: as §1

[12] = system: Morganella morganii CMC 84-37; conditions: CMC8437, 18 h, Table II, read-out: MIC
Method: as §1

[13] = system: Morganella morganii MOR 84-45; conditions: MOR8445, Mueller-Hinton agar, 10^4 CFU, 18 hours, 35° C.
Method: as §1

[14] = system: Proteus rettgeri CMC 84-41; conditions: Providencia rettgeri, CMC8441, 18 h, Table II, read-out: MIC
Method: as §1

[15] = system: Proteus rettgeri IO 83-21; conditions: Providencia rettgeri, IO8321, Mueller-Hinton agar, 10^4 CFU, 18 hours, 35° C.
Method: as §1

[16] = system: Providencia stuartii CMC 83-3; conditions: CMC833, Mueller-Hinton agar, 10^4 CFU, 18 hours, 35° C.
Method: as §1

[17] = system: Pseudomonas aeruginosa LL-1244; conditions: Pseudomonas aeruginosa, LL1244, 18 h, Table II, read-out: MIC
Method: as §1

[18] = system: Pseudomonas aeruginosa VGH 84-3; conditions: VGH843, Mueller-Hinton agar, 10^4 CFU, 18 hours, 35° C.
Method: as §1

[19] = system: Serratia marcescens CMC 83-74; conditions: CMC8374, Mueller-Hinton agar, 10^4 CFU, 18 hours, 35° C.
Method: as §1

[20] = system: Serratia marcescens IO 83-63; conditions: IO8363, Mueller-Hinton agar, 10^4 CFU, 18 hours, 35° C.
Method: as §1

[21] = system: Serratia marcescens MOR 84-41; conditions: MOR8441, Mueller-Hinton agar, 10^4 CFU, 18 hours, 35° C.
Method: as §1

[22] = system: Serratia marcescens VGH 84-30; conditions: VGH8430, 18 h, Table II, read-out: MIC
Method: as §1

[23] = system: Staphylococcus aureus K 82-26; conditions: K8226, Mueller-Hinton agar, 10^4 CFU, 18 hours, 35° C.
Method: as §1

[24] = system: Staphylococcus aureus VGH 84-45; conditions: VGH8445, 18 h, Table II, read-out: MIC
Method: as §1

[25] = system: Staphylococcus aureus VGH 84-47; conditions: VGH8447, Mueller-Hinton agar, 10^4 CFU, 18 hours, 35° C.
Method: as §1

[26] = system: Staphylococcus faecalis CMC 83-120; conditions: CMC83120, Mueller-Hinton agar, 10^4 CFU, 18 hours, 35° C.
Method: as §1

[27] = system: Staphylococcus faecalis VGH 84-69; conditions: VGH8469, Mueller-Hinton agar, 10^4 CFU, 18 hours, 35° C.
Method: as §1

[28] = system: Streptococcus faecalis UCI 85-19; conditions: Enterococcus faecalis, UCI8519, 18 h, Table II, read-out: MIC
Method: as §1

[29] = system: Streptococcus faecalis UCI 85-30; conditions: Enterococcus faecalis, UCI8530, Mueller-Hinton agar, 10^4 CFU, 18 hours, 35° C.
Method: as §1

[30] = system: Streptococcus faecalis VGH 84-65; conditions: Enterococcus faecalis, VGH8465, 18 h, Table II, read-out: MIC
Method: as §1

[31] = Table I, Escherichia coli ATCC 25922, Mueller-Hinton agar, 10^4 CFU, 18 hours, 35° C.
[32] = Table II, Excherichia coli ATCC 25922

| Compound | MIC [1] | MIC [2] | MIC [3] | MIC [4] | MIC [5, 31] | MIC [5, 32] | MIC [6] | MIC [7] | MIC [8] | MIC [9] | MIC [10] | MIC [11] | MIC [12] | MIC [13] | MIC [14] | MIC [15] | MIC [16] | MIC [17] | MIC [18] | MIC [19] | other results |
| --- | --- | --- | --- | --- | --- | --- | --- | --- | --- | --- | --- | --- | --- | --- | --- | --- | --- | --- | --- | --- | --- |
| CCn1cc(C(=O)O)c(=O)c2cc(F)c(N[C@@H]3CCC[C@@H]3N)cc21 (relative stereo) [Example 4, Cis-7-[(2-Aminocyclopentyl)amino]-1-ethyl-6-fluoro-1,4-dihydro-4-oxo-3-quinolinecarboxylic acid] | 0.5 µg/mL (≈ 1.5 µM) | 1 µg/mL (≈ 3 µM) | 4 µg/mL (≈ 12 µM) | 1 µg/mL (≈ 3 µM) | 0.5 µg/mL (≈ 1.5 µM) | 2 µg/mL (≈ 6 µM) | 1 µg/mL (≈ 3 µM) | 1 µg/mL (≈ 3 µM) | 2 µg/mL (≈ 6 µM) | 2 µg/mL (≈ 6 µM) | 2 µg/mL (≈ 6 µM) | 1 µg/mL (≈ 3 µM) | 4 µg/mL (≈ 12 µM) | 0.5 µg/mL (≈ 1.5 µM) | 8 µg/mL (≈ 24 µM) | 2 µg/mL (≈ 6 µM) | > 16 µg/mL | 32 µg/mL (≈ 96 µM) | > 16 µg/mL | > 16 µg/mL | MIC [20]: 1 µg/mL (≈ 3 µM); MIC [21]: 1 µg/mL (≈ 3 µM); MIC [22]: 16 µg/mL (≈ 48 µM); MIC [23]: 1 µg/mL (≈ 3 µM); MIC [24]: 64 µg/mL (≈ 192 µM); MIC [25]: 2 µg/mL (≈ 6 µM); MIC [26]: 4 µg/mL (≈ 12 µM); MIC [27]: 4 µg/mL (≈ 12 µM); MIC [28]: 32 µg/mL (≈ 96 µM); MIC [29]: 4 µg/mL (≈ 12 µM); MIC [30]: 32 µg/mL (≈ 96 µM) |
| N[C@H]1CCC[C@H]1Nc1cc2c(cc1F)c(=O)c(C(=O)O)cn2-c1ccc(F)cc1 (relative stereo) [Example 3] | 2 µg/mL (≈ 5.01 µM) | 2 µg/mL (≈ 5.01 µM) | 8 µg/mL (≈ 20 µM) | 2 µg/mL (≈ 5.01 µM) | 2 µg/mL (≈ 5.01 µM) | 1 µg/mL (≈ 2.5 µM) | 2 µg/mL (≈ 5.01 µM) | 2 µg/mL (≈ 5.01 µM) | 1 µg/mL (≈ 2.5 µM) | 1 µg/mL (≈ 2.5 µM) | 4 µg/mL (≈ 10 µM) | 8 µg/mL (≈ 20 µM) | 4 µg/mL (≈ 10 µM) | 4 µg/mL (≈ 10 µM) | 4 µg/mL (≈ 10 µM) | 4 µg/mL (≈ 10 µM) | > 16 µg/mL | 16 µg/mL (≈ 40.1 µM) | > 16 µg/mL | > 16 µg/mL | MIC [20]: 4 µg/mL (≈ 10 µM); MIC [21]: 4 µg/mL (≈ 10 µM); MIC [22]: 8 µg/mL (≈ 20 µM); MIC [23]: 4 µg/mL (≈ 10 µM); MIC [24]: 4 µg/mL (≈ 10 µM); MIC [25]: 4 µg/mL (≈ 10 µM); MIC [26]: > 16 µg/mL; MIC [27]: > 16 µg/mL; MIC [28]: 64 µg/mL (≈ 160 µM); MIC [29]: > 16 µg/mL; MIC [30]: 64 µg/mL (≈ 160 µM) |
